2 substances from patent US20100135905A1, “ASSESSMENT OF CANCER SUSCEPTIBILITY TO MOLECULAR TARGETED THERAPY BY USE OF RECOMBINANT PEPTIDES” (priority 2004, published 2010) can be followed below.

In data set [1] the test system is D54 and LLC tumors. In words: Imaging of Alexfluor 750-conjugated peptide in responding and non-responding tumors. The data set is classed as in vivo, nude mice. As for the experimental part:
D54 and LLC tumors were implanted into both hind limbs of nude mice as described in Example 2. Tumors were grown over the course of seven to 10 days.
At 24 hours following drug administration, mice were injected with Alexfluor 750-conjugated HVGGSSV (SEQ ID NO: 1) peptide through a jugular catheter.

Data set [2] deals with responding tumor. Briefly: Near infrared imaging of Cy7-labeled phage peptide in tumor-bearing mice. Type of data set: in vivo, mouse. As for the experimental part: To determine the feasibility of imaging phage peptides binding within tumors, a Xenogen imaging system (Xenogen Corp., Alameda, Calif., United States of America) and near infrared imaging of Cy7-labeled recombinant peptides selected from phage libraries was employed. In order to examine the binding of recombinant phage peptides to responding tumors, preliminary experiments were performed to test the background binding of negative control phage in tumor-bearing animals. The […] was labeled with Cy7 and injected by tail vein into a mouse bearing tumors in both hind limbs. […] The time course of labeled negative control phage circulating throughout the animal over 6 hours was determined. At 1 hour post-injection via the tail vein, Cy7-labeled phage was distributed throughout the entire animal. At 6 hours after tail vein injection, clearance through the kidneys was observed.

Data set [3] has as its system tumor vascular endothelium. In words: Histochemistry of tumor sections after biotinylated peptide. Type of data set: in vivo. To be noted: 24 hours after administration. As for the experimental part: To determine whether peptide binds to endothelium or blood components, tumors were sectioned at 24 hours following administration of biotinylated HVGGSSV (SEQ ID NO: 1) peptide. Tumor sections were then stained with strepavidin conjugates for histochemistry.

The subject of data set [4] is GL261 tumors. Briefly: In vivo panning of T7 phage peptide library: phage recovered from irradiated GL261 tumors. Also noted: species or system mice. To be noted: Experiment A, 3 Gy; for Phage Recovered from GL261 tumors: number of sequenced phage after six rounds; for Phage Recovered from GL261 tumors (Frequency): six rounds. As for the experimental part: (§1) GL261 murine glioma cells and Lewis lung carcinoma (LLC) cells were implanted into the hind limb of C57BL/6 mice (see Hallahan et al., 1995b; Hallahan et al., 1998; Hallahan & Virudachalam, 1999).
(§2) For in vivo panning, tumors were irradiated with 3 Gy and approximately 10^10 phage (prepared as described in Example 1) were administered by tail vein injection into each of the tumor bearing mice at 4 hours following irradiation. Tumors were recovered at one hour following injection and amplified in BL21 bacteria. Amplified phage were pooled and re-administered to a tumor-bearing mouse following tumor irradiation. The phage pool was sequentially administered to a total of 6 animals. As a control, wild type phage lacking synthetic peptide inserts were identically administered to a second experimental group of animals.
(§3) To determine the titer of phage binding in a tumor or in normal tissue, recovered phage were amplified in BL21 bacteria. Bacteria were plated and the number of plaques present was counted. To determine the total phage output per organ, the number of plaque forming units (PFU) on each plate was divided by the volume of phage plated and the weight of each organ. Normal variation was observed as a 2-fold difference in PFU. In the present Example, background binding within tumor blood vessels was approximately 10^4 phage. Phage that bound to the vasculature within irradiated tumors show enrichment in the tumor relative to other organs and enrichment in the irradiated tumor relative to the control phage without DNA insert.
(§4) Following six rounds of in vivo panning, fifty recombinant phage peptides that bound within irradiated tumors were randomly selected for further analysis. The nucleic acid sequence encoding recombinant phage was amplified by PCR using primers set forth as SEQ ID NOs: 20-21 (available from Novagen Brand, a unit of EMD Biosciences, Inc., Madison, Wis.). An individual phage suspension was used as template. Amplified peptides were sequenced using an ABI PRISM® 377 sequencer (Applied Biosystems of Foster City, Calif., United States of America).

The test system of data set [5] is B16F0 melanoma, lung carcinoma and glioma tumor models. Briefly: Binding of phage-encoded peptides in additional tumor models. To be noted: phage encoding the peptide. The data set is classed as in vivo. The source says: The binding properties of phage encoding HVGGSSV (SEQ ID NO: 1), […] (SEQ ID NO: 2), […] (SEQ ID NO: 3), and SVGSRV (SEQ ID NO: 4) were additionally characterized in a B16F0 melanoma model.

Data set [6] relates to treated tumors. In words: Kinetics of Cy 7 conjugated peptide binding to treated tumors, daily imaging. The data set is classed as in vivo, mouse. To be noted: Cy 7 conjugate. As for the experimental part: To study the kinetics of peptide binding to treated tumors, animals were imaged daily following administration of Cy 7 conjugated HVGGSSV (SEQ ID NO: 1) peptide. […] At 40 hours, the peptide was excreted by the kidneys. Tumors were located in the left hind limb.

The subject of data set [7] is LLC tumors. In words: In vivo panning of T7 phage peptide library: phage recovered from irradiated LLC tumors. On the set-up: species or system mice. As for the experimental part: as §1, §2, §3, §4
Data set [8] deals with LLC tumors. In words: 131I-labeled peptide binding in hind limb LLC tumors, well counts. The data set is classed as in vivo, mice. Here is the method: Recombinant peptide and ligand binding to the α2bβ3 integrin is dose dependent, with a threshold dose of 6 Gy and maximal binding at 10 Gy. This is the dose range for induction of apoptosis within tumor endothelium (Garcia-Barros & Kolesnick, 2003). […] To determine whether recombinant peptides bind within tumors following this combined therapy, the recombinant peptide […] (SEQ ID NO: 2) was employed. […] Tumors were resected and counts per minute (CPM) were measured by well counts.

Data set [9] has as its target T1, α2bβ3 receptor (Mus musculus, UniProt O54890+Q9QUM0).
T1 construct: from tissue; host or cells: irradiated tumours (tumour vasculature / blood components) in living mice
T1 sequence (Q9QUM0 32-1033): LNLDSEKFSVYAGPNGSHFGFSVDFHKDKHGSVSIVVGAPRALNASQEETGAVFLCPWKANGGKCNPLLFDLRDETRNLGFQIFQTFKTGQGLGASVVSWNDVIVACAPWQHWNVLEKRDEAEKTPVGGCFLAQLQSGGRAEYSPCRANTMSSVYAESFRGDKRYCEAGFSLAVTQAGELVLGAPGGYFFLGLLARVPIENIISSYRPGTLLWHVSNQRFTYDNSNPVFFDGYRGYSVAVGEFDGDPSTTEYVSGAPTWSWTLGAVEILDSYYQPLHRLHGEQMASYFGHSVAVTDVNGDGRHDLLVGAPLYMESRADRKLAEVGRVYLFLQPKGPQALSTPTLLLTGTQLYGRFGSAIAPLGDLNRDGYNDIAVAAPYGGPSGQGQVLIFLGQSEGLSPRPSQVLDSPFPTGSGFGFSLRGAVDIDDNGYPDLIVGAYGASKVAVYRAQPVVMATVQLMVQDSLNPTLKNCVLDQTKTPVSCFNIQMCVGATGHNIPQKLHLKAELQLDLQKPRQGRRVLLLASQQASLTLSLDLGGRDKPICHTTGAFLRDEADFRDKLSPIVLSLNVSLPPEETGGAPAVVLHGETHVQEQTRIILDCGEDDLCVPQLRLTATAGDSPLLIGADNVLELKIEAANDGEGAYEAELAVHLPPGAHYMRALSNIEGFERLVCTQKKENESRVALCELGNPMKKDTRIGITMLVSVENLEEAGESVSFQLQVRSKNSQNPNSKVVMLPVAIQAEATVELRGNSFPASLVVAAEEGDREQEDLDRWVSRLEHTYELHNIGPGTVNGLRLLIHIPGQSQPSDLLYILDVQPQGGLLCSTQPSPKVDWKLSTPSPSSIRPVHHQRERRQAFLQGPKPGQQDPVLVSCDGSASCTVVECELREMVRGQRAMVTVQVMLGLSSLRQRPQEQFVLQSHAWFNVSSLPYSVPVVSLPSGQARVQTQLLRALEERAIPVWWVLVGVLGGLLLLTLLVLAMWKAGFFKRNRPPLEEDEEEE
T1 sequence (O54890 26-787): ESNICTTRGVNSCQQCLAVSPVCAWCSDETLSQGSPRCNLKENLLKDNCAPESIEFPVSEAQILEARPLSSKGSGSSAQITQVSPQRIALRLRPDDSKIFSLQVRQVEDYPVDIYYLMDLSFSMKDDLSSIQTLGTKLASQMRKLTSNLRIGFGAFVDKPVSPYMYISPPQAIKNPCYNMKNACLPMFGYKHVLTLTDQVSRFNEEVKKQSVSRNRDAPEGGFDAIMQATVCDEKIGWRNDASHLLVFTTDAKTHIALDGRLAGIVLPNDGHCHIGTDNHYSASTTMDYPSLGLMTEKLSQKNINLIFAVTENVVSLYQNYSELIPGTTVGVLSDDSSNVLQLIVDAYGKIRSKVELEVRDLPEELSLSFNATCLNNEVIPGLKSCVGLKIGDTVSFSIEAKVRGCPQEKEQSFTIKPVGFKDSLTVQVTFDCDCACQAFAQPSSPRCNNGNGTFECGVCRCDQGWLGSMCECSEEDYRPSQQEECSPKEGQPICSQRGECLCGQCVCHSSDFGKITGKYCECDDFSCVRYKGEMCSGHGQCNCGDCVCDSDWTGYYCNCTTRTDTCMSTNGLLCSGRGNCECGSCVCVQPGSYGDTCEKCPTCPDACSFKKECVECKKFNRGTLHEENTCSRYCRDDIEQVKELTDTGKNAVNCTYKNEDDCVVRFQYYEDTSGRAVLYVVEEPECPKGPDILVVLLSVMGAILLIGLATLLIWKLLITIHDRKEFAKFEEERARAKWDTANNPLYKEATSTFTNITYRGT
In words: Phage binding in irradiated tumors with blocking antibody, plaque formation. The data set is classed as in vivo. To be noted: phage encoding the peptide on the capsid protein. As for the experimental part: An anti-α2bβ3 monoclonal antibody was administered by tail vein to determine whether this receptor is required for recombinant phage binding in irradiated tumors. Phage encoding […] (SEQ ID NO: 2) on the capsid protein were injected immediately after blocking antibody or control antibody. Phage were recovered from the tumor and controls organs and quantified by plaque formation. Radiation induced a 4-fold increase in phage binding in tumor. […] Thus, the tumor binding activity of targeting peptide […] (SEQ ID NO: 2) is dependent on its interaction with the α2bβ3 receptor.

Setting [10] is: Experiment A, number of sequenced phage after six rounds, 3 Gy.

Consider “HVGGSSV (Peptide that binds to LLC and/or GL261 tumors) [peptide isolated by in vivo panning of a phage library]”, for which the “Labeled peptide binding in tumor” value in data set [1] (Alexfluor 750 conjugate, tumor treated with SU11248 and radiation, 24 hours after drug) was “Intense peptide binding”. Also, the “Uptake in tumors treated with SU11248 alone compared to untreated tumors” value in data set [1] (responding versus non-responding tumors) was “differentially bound to tumors that responded to SU11248 therapy”. Further, in [1] (tumors not responding to therapy, SU11248 alone), the “Labeled peptide binding in tumor” value is recorded as “no increase in peptide binding”. Besides, in data set [2] (SU11248 and 3 Gy to right hind limb tumor), the “Binding of Cy7-labeled phage peptide in treated tumor” value is reported as “bound within the responding tumor”. Besides, the “Binding of Cy7-labeled phage peptide in tumors” value in data set [2] (mouse treated with SU11248 40 mg/kg, one hind limb tumor 3 Gy 24 hours prior to imaging) is on record as “observed in the responding tumor but not an non-responding tumor”. The “Phage binding in negative control tumor” value in data set [2] (no SU11248 or radiation, 24 hours after tail vein injection) is recorded as “minimal phage binding”. Also, the “Binding within the intravascular blood components” value in data set [3] is recorded as “minimal or no binding”. Further, in data set [3] (streptavidin histochemistry), the “Site of peptide binding in tumor sections” value is listed as “bound primarily to tumor vascular endothelium”. In [4], the “Phage Recovered from GL261 tumors” value is 12 and the “Phage Recovered from GL261 tumors (Frequency)” value is “(48%)”. Moreover, the “Tumor models within which the phage-encoded peptide bound” value in data set [5] was “bound within the melanoma, lung carcinoma, and glioma tumor models”. Further, in data set [6], the “Time at which peptide was excreted by the kidneys” value is 40 h, the “Time over which peptide circulated throughout the mouse” value was found to be 28 h and the “Time over which peptide remained bound to the tumor” value stood at 162 h. For the same substance, the “Phage Recovered from LLC tumors” value in data set [7] (setting [10]) is given as 7. The “Phage Recovered from LLC tumors (Frequency)” value in data set [7] (Experiment A, six rounds, 3 Gy) is “(28%)”.

Take “SLRGDGSSV (Peptide that binds to LLC and/or GL261 tumors) [peptide isolated by in vivo panning]”: the “Radiolabeled peptide bound in tumors” value in [8] (tumors treated with 2 Gy alone) came out at 10%; in data set [8] (tumors treated with 10 Gy), 89%; in data set [8] (tumors treated with SU11248 alone), 9%; in data set [8] (tumors treated with SU11248 and 2 Gy), 91%; in data set [8] (untreated control tumors (tumors about 8% of body weight)) it was 8%. Further, the “Phage Recovered from GL261 tumors” value in data set [4] was 2. Also, in data set [4], the “Phage Recovered from GL261 tumors (Frequency)” value was “(8%)”. In addition, the “Radiation-induced increase in phage binding in tumor” value in [9] came out at 4 fold. The “Tumor models within which the phage-encoded peptide bound” value in [5] was “bound within the melanoma, lung carcinoma, and glioma tumor models”. Further, the “Phage Recovered from LLC tumors” value came to 7 in data set [7] (setting [10]) and 2 in data set [7] (Experiment B, number of sequenced phage). In addition, the “Phage Recovered from LLC tumors (Frequency)” value in data set [7] (Experiment A, six rounds, 3 Gy) is “(28%)”; in data set [7] (Experiment B), “(14%)”.
